Reference: US20240141445A1, “NOVEL METHOD FOR POOLED INTRON TAGGING FOR REAL TIME DRUG SCREENING” (CeMM - Forschungszentrum für Molekulare Medizin GmbH, priority 2019, published 2024)

Test system: GFP-tagged proteins in HAP1 cells
Test: GFP intron-tagged cell pool / arrayed clones, time-lapse imaging of protein levels and localization
Type: cell-based
Procedure: For the generation of lentiviral particles, HEK293T cells were transiently transfected with the intron-targeting library and packaging plasmids psPAX2, pMD2.G using PEI transfection. After 12 h the media was replaced with IMDM supplemented with 10% FBS and P/S. Viral supernatant was collected 48 h after transfection and stored at −80° C. HAP1 cells were transduced with virus and selected with puromycin for three days. Multiplicity of infection (MOI) was 0.2 and transduction was done at a coverage of 500×. After puromycin selection, cells were grown for one day in media without puromycin before being seeded for transfection (8 million cells per 15 cm dish, 48 million cells in total). One day after seeding, each dish was co-transfected with 20 μg pX330 expressing Cas9-BSD and the generic sgRNA and 10 μg EGFP donor plasmid with 90 μl Turbofection in 2.5 ml OptiMEM as described by the manufacturer. Transfection efficiency was approximately 10% as determined by a transfection done in parallel with pX330 Cas9-mCherry and the EGFP donor plasmid using the same ratio. The next day, cells were subjected to a transient selection using Blasticidin (10 μg/ml) for 24 h. After selection, cells were maintained in full media without Blasticidin and sorted five days after transfection by flow cytometry using a Sony Cell Sorter SH800ZD. 0.03% cells were GFP-positive and in total 24,300 of those GFP-positive cells were sorted and the cell population was expanded for 7 days before DNA was isolated to determine sgRNA abundance in the cell population.
To obtain clonal cell lines, cells were seeded at a concentration of 0.7 cells per well in 96-well cell culture plates. After 9 days of clonal expansion, 768 colonies were harvested using trypsin and cell suspensions were transferred in equal amounts to eight 96-well imaging plates (Perkin Elmer CellCarrier Ultra) and eight corresponding 96-well cell culture plates. After 24 h, cells on the imaging plates were imaged on a Perkin Elmer Opera Phenix High Content Screening System (5 fields of view per well, 63× water-immersion objective, confocal mode, excitation: 488 nm, […], 700 ms). Images were processed using Cell Profiler. To identify the intron-targeting sgRNAs expressed in imaged cells, multiplexed amplicon sequencing of the sgRNA regions was performed in the corresponding clones on the eight 96-well cell culture plates. Cells were lysed and cell lysates were used for PCR to amplify the sgRNA region in each clone using barcoded primers flanking the sgRNA region (36 different 5-mers added to the 5′end of the forward primer and 24 different 5-mers added to the 5′end of the reverse primer, 768 of all possible 864 combinations were used). PCR reactions were pooled and column purified before being send for sequencing by a commercial sequencing service. NGS reads were demultiplexed using Cutadapt (see Martin, M. EMBnet. journal, [S.I.], v. 17, n. 1, p. pp. 10-12, may 2011) and sgRNA read counts for each individual well were obtained using MAGeCK (see, Li (2014) Genome Biol 15, 554 (2014). For further analysis clones were excluded, for which either no cells in any of the 5 fields of view that were imaged were observed, no sequencing reads for the corresponding well were observed or for which polyclonal cell populations as determined by imaging or detection of multiple sgRNAs per well were observed. Using that strategy, images of 335 clones were obtained for which the expressed intron-targeting sgRNA corresponding to the tagged protein could be identified.
Live cell imaging was performed on a PerkinElmer Opera Phenix microscope with excitation laser 488 nm, and emission filter 500-550 nm, 700 ms.
Identification of the expressed sgRNAs by in situ sequencing was performed by following and modifying published protocols, see, e.g., Feldman (2019) loc. cit; Ke (2013) Nat Methods 10, 857-60; and Larsson (2010) Nat Methods 7, 395-7. […]

[1] = clonal cell line, 1 μM (FIG. 10)

| SMILES | PADI1 protein level (1 μM (FIG. 10)) | RUVBL1 protein level (1 μM (FIG. 10)) | nuclear foci of GFP-tagged DNMT1 (1 μM (FIG. 10)) | nuclear signal of GFP-tagged NUDT21 (1 μM (FIG. 10)) | nuclear signal of GFP-tagged TPI1 (1 μM (FIG. 10)) | nuclear signal of GFP-tagged transcription factor DR1 (1 μM (FIG. 10)) | localization of GFP-tagged ACLY (24 h treatment, 1 μM (FIG. 10)) | localization of GFP-tagged RPA1 [1] | localization of GFP-tagged RPA2 [1] | localization of GFP-tagged AKAP8 (cell pool, FIG. 6e) | localization of GFP-tagged FUBP3 (cell pool, FIG. 6e) | localization of GFP-tagged MEAF1 (cell pool, FIG. 6e) | localization of GFP-tagged SFPQ (cell pool, FIG. 6e) | nuclear intensity of GFP-tagged UNG (cell pool, FIG. 6e) |
| --- | --- | --- | --- | --- | --- | --- | --- | --- | --- | --- | --- | --- | --- | --- |
| CN(Cc1cnc2nc(N)nc(N)c2n1)c1ccc(C(=O)N[C@@H](CCC(=O)O)C(=O)O)cc1 [MTX, methotrexate] | decreases | decreases | disappearance of nuclear DNMT1 foci | gain of nuclear signal | gain of nuclear signal | gain of nuclear signal | increased nuclear localization | formation of nuclear foci | formation of nuclear foci |  |  |  |  |  |
| Cc1sc2c(c1C)C(c1ccc(Cl)cc1)=N[C@@H](CC(=O)NCCCCCCCCNC(=O)COc1cccc3c1C(=O)N(C1CCC(=O)NC1=O)C3=O)c1nnc(C)n1-2 (some centres unmarked) [dBET6] |  |  |  |  |  |  |  |  |  | gain of nuclear foci | loss of subnuclear localization patterns | loss of subnuclear localization patterns | gain of nuclear foci | loss of nuclear intensity |
